Results on eleven compounds are retold here after patent publication US20240366775A1, “HUMAN TRANSFERRIN RECEPTOR BINDING ANTIBODY-PEPTIDE CONJUGATE” (PEPTIDREAM INC., priority 2021, published 2024).

pKd: −log10 of the molar value.

Series [1] concerns the target human transferrin receptor (hTfR) (Homo sapiens, UniProt P02786). As to the kind of experiment: SPR measurement of peptide binding to hTfR. Conditions: naked peptide (1st to 15th amino acids, without linker part) corresponding to the listed linker-attached peptide; read-out: SPR of naked peptide (KD for binding to hTfR). The text has this: Note that ND indicates No Data (here, it means that no data was obtained).
(In SPR one partner is held on a chip, and binding of the other changes the refractive index at the surface.)

A further series deals with T1, human TfR (Homo sapiens, UniProt P02786).
T1 construct: made in house
T1 sequence (P02786 whole entry): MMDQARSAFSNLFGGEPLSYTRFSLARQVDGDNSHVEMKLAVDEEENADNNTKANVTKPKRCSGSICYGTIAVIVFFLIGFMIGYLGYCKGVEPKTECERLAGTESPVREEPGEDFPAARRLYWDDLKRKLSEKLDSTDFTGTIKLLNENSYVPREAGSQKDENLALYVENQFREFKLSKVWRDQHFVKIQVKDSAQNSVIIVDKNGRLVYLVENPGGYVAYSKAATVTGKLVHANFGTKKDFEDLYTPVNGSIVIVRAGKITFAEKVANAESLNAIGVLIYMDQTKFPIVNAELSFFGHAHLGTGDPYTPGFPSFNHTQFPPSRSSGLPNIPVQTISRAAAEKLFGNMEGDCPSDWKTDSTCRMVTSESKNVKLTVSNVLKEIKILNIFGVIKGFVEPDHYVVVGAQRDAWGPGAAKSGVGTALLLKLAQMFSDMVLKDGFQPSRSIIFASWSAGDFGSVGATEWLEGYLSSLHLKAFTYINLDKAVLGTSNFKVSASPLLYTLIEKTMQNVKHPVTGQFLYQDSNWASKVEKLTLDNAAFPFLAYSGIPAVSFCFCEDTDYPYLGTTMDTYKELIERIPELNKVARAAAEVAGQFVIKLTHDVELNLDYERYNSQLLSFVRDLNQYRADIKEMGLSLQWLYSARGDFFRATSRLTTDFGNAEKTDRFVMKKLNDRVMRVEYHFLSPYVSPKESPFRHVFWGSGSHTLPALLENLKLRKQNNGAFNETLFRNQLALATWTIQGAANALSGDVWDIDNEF
As to the kind of experiment: ELISA bindability of various antibody-peptide conjugates to TfR. Conditions: sample at 100 nM, average absorbance of two measurements. Type of series: binding. The procedure: (§1) Random biotinylated TfR was added to IMMOBILIZER STREPTAVIDIN F96 clear (NUNC, Cat. No. 436014) at 1 μmol per one well and incubated at 4° C. overnight to perform solidification. The plate was washed with 900 μL of PBST in a plate washer (TECAN, HydroSpeed). 300 μL of 1% Block Ace (KAC Co., Ltd., Cat. No. UK-B80) was added per one well and incubated at room temperature for 90 minutes to perform blocking treatment. The plate was washed with 900 μL of PBST in the plate washer. 50 μL of various antibody-peptide conjugate and antibody whose peptide is not modified diluted to a final concentration of 100 nM by 50 mM HEPES pH 7.8-0.1% Block Ace were added and incubated at room temperature for 60 min. The plate was washed with 900 μL of PBST in the plate washer. 50 μL of Goat Anti-Human IgG H&L (HRP) (Abcam, Cat. No. ab97165) diluted 50,000 times with PBST-0.1% Block Ace solution was added and incubated at room temperature for 45 min. The plate was washed with 900 μL of PBST in the plate washer. 50 μL of TMB Solution (Sara care, Cat. No. 5150-0077) at room temperature was added and color development was performed at room temperature for 10 min in dark place, then 50 μL of TMB Stop Solution (Sara care, Cat. No. 5150-0021) was added to stop the color development. The absorbance at 450 nm was measured in a plate reader (Enspir (trademark), Perkin Elmer).
On the technique in general: An ELISA detects its analyte on a solid surface through an enzyme-linked reagent.

The nature of series [2]: ELISA no-target control wells (non-specific binding of antibodies and antibody-peptide conjugates). The settings on record: sample at 100 nM, no target immobilized. The method, then:
as §1, with “PD-1” for “TfR”, “50 μL of various antibody-peptide conjugate and antibody whose peptide is not modified diluted to a final concentration of 100 nM by 50 mM HEPES pH 7.8-0.1% Block Ace were added and incubated at room temperature for 60 min.” left out
as §1

Another series has as its target T2, PD-L1 (Homo sapiens, UniProt Q9NZQ7).
T2 construct: purchased R&D SYSTEMS 9049-B7
As to the kind of experiment: ELISA bindability of atezolizumab-peptide conjugate to PD-L1. Type of series: binding. Conditions: sample at 100 nM, average absorbance of two measurements. The procedure: The bindability of atezolizumab-peptide conjugates to the antigen PD-L1 was measured by ELISA.
100 μg of PD-L1 (R&D SYSTEMS, Cat. No. 9049-B7) was dissolved in PBS (Nacalai Tesque, Inc., Cat. No. 27575-31) to a final concentration of 1 g/L. To the dissolved PD-L1, 5 equivalents of 10 mM NHS-PEG4-Biotin (Thermo Scientific, Cat. No. A39259) was added and incubated at 4° C. overnight to biotinylate PD-L1. To a column packed with 1 mL of Bio-Gel P-6 (Bio-Rad, Cat. No. 1504130), swollen with a solution of polyoxyethylene sorbitan monolaurate (Nacalai Tesque, Inc., Cat. No. 28353-85) added to PBS to a final concentration of 0.1% (PBST), 100 μL of the above solution was added per one column to remove unreacted NHS-PEG4-Biotin.
Random biotinylated PD-L1 was added to IMMOBILIZER STREPTAVIDIN F96 clear (NUNC, Cat. No. 436014) at 1 μmol per one well and incubated at 4° C. overnight to perform solidification. The plate was washed with 900 μL of PBST in a plate washer (TECAN, HydroSpeed). 300 μL of 1% Block Ace (KAC Co., Ltd., Cat. No. UK-B80) was added per one well and incubated at room temperature for 90 minutes to perform blocking treatment. The plate was washed with 900 μL of PBST in the plate washer. […] The absorbance at 450 nm was measured in a plate reader (Enspir (trademark), Perkin Elmer).

Series [3] can be described thus: Test substance concentration in plasma, hTfR-KI mouse. Conditions: Example 7-2, tail vein 5 mg/kg, 1, 3, 6 and 24 hours, FIG. 2-3. It is filed as in vivo, hTfR-KI mice.
Experimental: Blood was drawn from the tail vein after 1 and 3 hours from administration (2 mice/time point). After 6 and 24 hours from administration, mice were anesthetized with isoflurane, blood was drawn from the right ventricle, and then perfused with saline from the left ventricle for 4 to 5 min for blood removing treatment. Blood was collected using an EDTA-2K-treated needle and syringe, and the collected blood was kept on ice until it was separated into plasma.
To Strept Avidin plate (Meso Scale Diagnostics, LLC), 150 μL/well of Blocker Casein in PBS (Thermo Fisher Scientific, Inc.) was added and shaken (26° C., 500 rpm) for 60 min in a plate shaker (Biosan) to perform blocking treatment. The Blocker Casein in PBS was removed from the Strept Avidin plates, and 200 μL/well of PBST was added to each plate and washed. 25 μL/well of Capture antibody solution was added to each Strept Avidin plate, and the plates were shaken (26° C., 500 rpm) for 60 min in a plate shaker. Capture antibody solution was removed and PBST was added 200 μL/well and washed. This washing operation was performed three times. […] The concentration of each test substance in the samples were calculated by adding 150 μL/well of 2×Read Buffer T to each Strept Avidin plate and measuring with a plate reader (Sector S600, Meso Scale Diagnostics, LLC).
The nature of series [4]: Test substance concentration in tissue (brain migration), hTfR-KI mouse. It is filed as in vivo, hTfR-KI mice. The settings on record: Example 7-2, tail vein 5 mg/kg, 6 and 24 hours, heart, lung, liver, spleen, kidney, quadriceps muscle, FIG. 2-4.
Experimental: Blood was drawn from the tail vein after 1 and 3 hours from administration (2 mice/time point). After 6 and 24 hours from administration, mice were anesthetized with isoflurane, blood was drawn from the right ventricle, and then perfused with saline from the left ventricle for 4 to 5 min for blood removing treatment. Blood was collected using an EDTA-2K-treated needle and syringe, and the collected blood was kept on ice until it was separated into plasma. After blood removing treatment, brains were harvested and divided into left and right portions, and the left brain was embedded in a freeze-embedding agent (OCT compound, Sakura Finetek Co., Ltd.) for immunostaining and a frozen block was prepared. The right brain, heart, lung, liver, spleen, kidney, and quadriceps muscle were collected for measurement of test substance concentrations in tissues, weighed, flash-frozen in liquid nitrogen, and stored at −70° C. or less. […]
To Strept Avidin plate (Meso Scale Diagnostics, LLC), 150 μL/well of Blocker Casein in PBS (Thermo Fisher Scientific, Inc.) was added and shaken (26° C., 500 rpm) for 60 min in a plate shaker (Biosan) to perform blocking treatment. […] The concentration of each test substance in the samples were calculated by adding 150 μL/well of 2×Read Buffer T to each Strept Avidin plate and measuring with a plate reader (Sector S600, Meso Scale Diagnostics, LLC).

Sequence of human transferrin receptor (hTfR) (P02786 whole entry): as above
T2 sequence (Q9NZQ7 19-290): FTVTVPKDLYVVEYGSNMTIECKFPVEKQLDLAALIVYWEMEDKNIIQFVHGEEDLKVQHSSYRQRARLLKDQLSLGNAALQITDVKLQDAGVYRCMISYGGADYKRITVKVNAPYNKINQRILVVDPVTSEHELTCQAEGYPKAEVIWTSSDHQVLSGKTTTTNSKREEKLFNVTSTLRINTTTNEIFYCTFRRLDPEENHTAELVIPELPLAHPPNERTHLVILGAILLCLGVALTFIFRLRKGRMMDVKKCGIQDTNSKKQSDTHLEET

A word on the pKd: it is −log10 of the Kd, conventionally taken in molar units. `CC[C@H](C)[C@@H]1NC(=O)[C@H](Cc2ccc(O)cc2)NC(=O)[C@H](Cc2ccc(O)cc2)NC(=O)[C@H](CC(N)=O)NC(=O)[C@H](Cc2c[nH]c3ccccc23)NC(=O)[C@H](C(C)C)NC(=O)[C@H](Cc2ccccc2)NC(=O)[C@H](C(C)C)NC(=O)[C@H](C)NC(=O)CSC[C@@H](C(=O)NCCOCCOCCOCCOCCOCCOCCOCCOCCOCCOCCOCCOCCOCCOCCOCCOCCOCCOCCOCCOCCOCCOCCOCCOCCOCCOCCOCCOCCOCCOCCOCCOCCOCCOCCOCCOCCC(=O)ON2C(=O)CCC2=O)NC(=O)[C@H](Cc2ccc(O)cc2)N(C)C(=O)[C@H](Cc2ccc(O)cc2)NC(=O)[C@H](CCCNC(=N)N)NC(=O)[C@H](CCCNC(=N)N)NC(=O)[C@H]([C@@H](C)CC)NC1=O` [JCR_hTfR_000894_PEG36_(NHS)]: in series [1], the pKd was over 9.00.
In the case of `CC[C@H](C)[C@@H]1NC(=O)[C@H](Cc2ccc(O)cc2)NC(=O)[C@H](Cc2ccc(O)cc2)NC(=O)[C@H](CC(N)=O)NC(=O)[C@H](Cc2c[nH]c3ccccc23)NC(=O)[C@H](C(C)C)NC(=O)[C@H](Cc2ccccc2)NC(=O)[C@H](C(C)C)NC(=O)[C@H](C)NC(=O)CSC[C@@H](C(=O)NCCOCCOCCOCCOCCC(=O)NN)NC(=O)[C@H](Cc2ccc(O)cc2)N(C)C(=O)[C@H](Cc2ccc(O)cc2)NC(=O)[C@H](CCCNC(=N)N)NC(=O)[C@H](CCCNC(=N)N)NC(=O)[C@H]([C@@H](C)CC)NC1=O` [hTIR 000894_PEG4_(Hydrazide)], the pKd in series [1] is over 9.00.
Still for that read-out and setting: next, `CC[C@H](C)[C@@H]1NC(=O)[C@H](Cc2ccc(O)cc2)NC(=O)[C@H](Cc2ccc(O)cc2)NC(=O)[C@H](CC(N)=O)NC(=O)[C@H](Cc2c[nH]c3ccccc23)NC(=O)[C@H](C(C)C)NC(=O)[C@H](Cc2ccccc2)NC(=O)[C@H](C(C)C)NC(=O)[C@H](C)NC(=O)CSC[C@@H](C(=O)NCCOCCOCCOCCOCCOCCOCCOCCOCCOCCOCCOCCOCCOCCOCCOCCOCCOCCOCCOCCOCCOCCOCCOCCOCCOCCOCCOCCOCCOCCOCCOCCOCCOCCOCCOCCOCCC(=O)NN)NC(=O)[C@H](Cc2ccc(O)cc2)N(C)C(=O)[C@H](Cc2ccc(O)cc2)NC(=O)[C@H](CCCNC(=N)N)NC(=O)[C@H](CCCNC(=N)N)NC(=O)[C@H]([C@@H](C)CC)NC1=O` [hTIR_000894_PEG36_(Hydrazine)]: over 9.00; `CC[C@H](C)[C@@H]1NC(=O)[C@H](Cc2ccc(O)cc2)NC(=O)[C@H](Cc2ccc(O)cc2)NC(=O)[C@H](CC(N)=O)NC(=O)[C@H](Cc2c[nH]c3ccccc23)NC(=O)[C@H](C(C)C)NC(=O)[C@H](Cc2ccccc2)NC(=O)[C@H](C(C)C)NC(=O)[C@H](C)NC(=O)CSC[C@@H](C(=O)NCC(=O)N[C@@H](CCC(=O)O)C(=O)NCC(=O)N[C@@H](CCC(=O)O)C(=O)NCCOCCOCCOCCOCCOCCOCCOCCOCCOCCOCCOCCOCCC(=O)NN)NC(=O)[C@H](Cc2ccc(O)cc2)N(C)C(=O)[C@H](Cc2ccc(O)cc2)NC(=O)[C@H](CCCNC(=N)N)NC(=O)[C@H](CCCNC(=N)N)NC(=O)[C@H]([C@@H](C)CC)NC1=O` [hTfR_894_(GEGE)PEG12_Hydrazide]: over 9.00; `CC[C@H](C)[C@@H]1NC(=O)[C@H](Cc2ccc(O)cc2)NC(=O)[C@H](Cc2ccc(O)cc2)NC(=O)[C@H](CC(N)=O)NC(=O)[C@H](Cc2c[nH]c3ccccc23)NC(=O)[C@H](C(C)C)NC(=O)[C@H](Cc2ccccc2)NC(=O)[C@H](C(C)C)NC(=O)[C@H](C)NC(=O)CSC[C@@H](C(=O)NCCOCCOCCOCCOCCOCCOCCOCCOCCOCCOCCOCCOCCC(=O)NN)NC(=O)[C@H](Cc2ccc(O)cc2)N(C)C(=O)[C@H](Cc2ccc(O)cc2)NC(=O)[C@H](CCCNC(=N)N)NC(=O)[C@H](CCCNC(=N)N)NC(=O)[C@](C)([C@@H](C)CC)NC1=O` [hTfR_000894_PEG11_(Hydrazine)]: over 9.00.
Same read-out and setting: next, `CC[C@H](C)[C@@H]1NC(=O)[C@H](Cc2ccc(O)cc2)NC(=O)[C@H](Cc2ccc(O)cc2)NC(=O)[C@H](CC(N)=O)NC(=O)[C@H](Cc2c[nH]c3ccccc23)NC(=O)[C@H](C(C)C)NC(=O)[C@H](Cc2ccccc2)NC(=O)[C@H](C(C)C)NC(=O)[C@H](C)NC(=O)CSC[C@@H](C(=O)NCCOCCOCCOCCOCCOCCOCCOCCOCCOCCOCCOCCOCCC(=O)N[C@@H](CCCCNC(=O)C2CCC(CN3C(=O)C=CC3=O)CC2)C(N)=O)NC(=O)[C@H](Cc2ccc(O)cc2)N(C)C(=O)[C@H](Cc2ccc(O)cc2)NC(=O)[C@H](CCCNC(=N)N)NC(=O)[C@H](CCCNC(=N)N)NC(=O)[C@H]([C@@H](C)CC)NC1=O` (some centres unmarked) [hTfR_000894_PEG11_K (Maleimide)]: over 9.00.
As to atezolizumab, the “Abs450 nm at 100 nM, Target hTfR” value with human TfR is listed as 0.0465. Further, in series [2], the “Abs450 nm at 100 nM, No-target” value worked out at 0.043. Also, the “Abs450 nm at 100 nM, Target PD-L1” value in the series with PD-L1 is on record as 2.237.
On to ipilimumab, for which the “Abs450 nm at 100 nM, No-target” value in series [2] was determined as 0.044.
As for nivolumab [Nivolumab (control)], the “concentration in plasma, time course” value in series [3] is “detected in plasma at all time points evaluated and showed biphasic changes in plasma concentrations”. Moreover, in series [4], the detection in tissues entry is “detected in all tissues”.
Consider pembrolizumab, for which the “Abs450 nm at 100 nM, No-target” value in series [2] is 0.0415.
Consider pertuzumab, for which the “Abs450 nm at 100 nM, No-target” value in series [2] came out at 0.0455.
